Reference: article PMC8765781, “A platform of assays for the discovery of anti-Zika small-molecules with activity in a 3D-bioprinted outer-blood-retina model” (PLoS ONE, 2022)
Like-named read-outs stand apart in the source and are kept apart here. *1 amine or outer side, *2 acyl side, *3 side chain or, on linkers, in order; H or OH if unused. Where a SMILES comes first, the peptide text is derived from it. [ ]: non-standard residue; d: D form. X3 = CC(CC(O[*:1])C(=O)[*:2])C(=O)O; NMeV = CN[CH](C(=O)O)C(C)C; NMeA = CN[CH](C)C(=O)O; βAla = NCCC(=O)O

What was measured:
[1] = tested on: ZIKV-RLuc (Cambodian strain FSS13025); experiment: microbe, parasite or virus in culture; type: cell-based, Zika virus
[2] = Zika virus, Vero, read-out: Log AC50 (M) (converted)

| SMILES | CC-v2 (curve class classification v2 of the dose response curve) [1] | Efficacy (difference between neutral response and maximum compound response) [1] | Max Resp (difference between neutral response and compound response for highest compound concentration) [1] | AC50 ([1]; Zika virus, Vero) [M] | AC50 [1, 2] [M] | AC50 (Vero cells) [µM] | Log AC50 (M) (Vero cells) | AC50 [1] [M] | Log AC50 (M) [1] |
| --- | --- | --- | --- | --- | --- | --- | --- | --- | --- |
| CN1CCN(CCCN2c3ccccc3Sc3ccc(C(F)(F)F)cc32)CC1 [NCGC00013226-15] | -2.1 | -93.82 | -95.429 | 2.33e-05 | 2.33e-05 | 23.3 | -4.6327 |  |  |
| CC(C)(O)/C=C\C(=O)[C@](C)(O)[C@H]1[C@H](O)C[C@]2(C)[C@@H]3CC=C4[C@@H](C=C(O)C(=O)C4(C)C)[C@]3(C)C(=O)C[C@@]12C [NCGC00014911-01] | -1.1 | -103.985 | -99.739 | 3.29e-06 | 3.29e-06 | 3.29 | -5.4827 |  |  |
| CCCCc1oc2ccccc2c1C(=O)c1cc(I)c(OCCN(CC)CC)c(I)c1 [NCGC00015096-17] | -2.1 | -100.133 | -98.715 | 1.85e-05 | 1.85e-05 | 18.5 | -4.7327 |  |  |
| CNCCC(Oc1ccc(C(F)(F)F)cc1)c1ccccc1 (stereo not shown) [NCGC00015428-15] | -2.2 | -78.657 | -76.003 | 1.65e-05 | 1.65e-05 | 16.5 | -4.7827 |  |  |
| OCCN1CCN(CCCN2c3ccccc3Sc3ccc(C(F)(F)F)cc32)CC1 [NCGC00015436-11] | -3 | -75.446 | -79.581 | 2.61e-05 | 2.61e-05 | 26.1 | -4.5827 |  |  |
| CC(C)(Sc1ccc(CCN(CCCCC2CCCCC2)C(=O)NC2CCCCC2)cc1)C(=O)O [NCGC00015480-13] | -2.2 | -93.466 | -98.662 | 3.29e-05 | 3.29e-05 | 32.9 |  |  |  |
| O=C(Nc1ccc([N+](=O)[O-])cc1Cl)c1cc(Cl)ccc1O [NCGC00015735-11] | -1.1 | -106.368 | -100.429 |  |  | 0.362 | -6.4408 | 3.62e-07 | -6.4408 |
| O=C(Nc1ccc([N+](=O)[O-])cc1Cl)c1cc(Cl)ccc1O [NCGC00015735-12] | -1.1 | -94.574 | -99.55 |  |  | 1.04 | -5.9827 | 1.04e-06 | -5.9827 |
| CCCN(CC1CC1)c1nc(C)nc(Nc2c(Cl)cc(Cl)cc2Cl)c1Cl [NCGC00015737-02] | -3 | -116.403 | -99.557 | 3.69e-05 | 3.69e-05 | 36.9 | -4.4327 |  |  |
| COC(=O)C1=C(C)NC(C)=C(C(=O)OCCN(C)Cc2ccccc2)C1c1cccc([N+](=O)[O-])c1 (stereo not shown) [NCGC00015747-03] | -3 | -68.655 | -54.296 | 3.69e-05 | 3.69e-05 | 36.9 | -4.4327 |  |  |
| O=c1[nH]c2ccccc2n1C1CCN(CCCC(c2ccc(F)cc2)c2ccc(F)cc2)CC1 [NCGC00015802-18] | -2.1 | -98.365 | -96.477 | 2.08e-05 | 2.08e-05 | 20.8 | -4.6827 |  |  |
| COc1ccc(CCN(C)CCCC(C#N)(c2ccc(OC)c(OC)c2)C(C)C)cc1OC (stereo not shown) [NCGC00016083-13] |  |  |  | 1.51e-05 | 1.51e-05 | 15.1 | -4.8199 |  |  |
| CCCCc1ccc(N[S+](=O)([O-])c2ccc(C)c(C(=O)N3CCN(c4cccc(C)c4C)CC3)c2)cc1 [NCGC00263234-01] | -3 | -38.307 | -30.256 | 7.59e-05 | 7.59e-05 |  |  |  |  |
| COc1ccc(/C=C/C(=O)/C=C/c2ccc(OC)cc2)cc1 [NCGC00336197-02] | 3 | 41.267 | 6.905 |  |  |  |  |  |  |
| CCc1ccc(C(=O)Nc2cc(CN3CCN(C)CC3)cc(C(F)(F)F)c2)cc1C#Cc1cnc2ccnn2c1 [NCGC00347217-02] | -3 | -116.826 | -100.407 |  |  |  |  |  |  |
| CN(C)c1cccc(-c2c3c(=O)n(-c4ccccc4Cl)[nH]c3cc(=O)n2C)c1 [NCGC00378460-01] | 4 | 10.267 | 14.909 |  |  |  |  |  |  |
| CCC(C)C1NC(=O)C2CCCN2C(=O)C(CC(C)C(=O)O)OC(=O)CCNC(=O)C(C)N(C)C(=O)C(C(C)C)N(C)C1=O (stereo not shown) [NCGC00380598-01] (cyclo([X3]PI[NMeV][NMeA][βAla]); configuration not given here) | 4 | -20.973 | -24.561 |  |  |  |  |  |  |
| CC1OC(OC2C(c3c(O)cc(OC4OC(CO)C(O)C(O)C4O)c4c(=O)cc(-c5ccc(O)cc5)oc34)OC(CO)C(O)C2O)C(O)C(O)C1O (stereo not shown) [NCGC00384535-01] | 4 |  | -6.059 |  |  |  |  |  |  |
| COc1c(O)c(C(=O)/C=C/c2ccccc2)c(OC)c(OC)c1OC [NCGC00384644-01] | 4 |  | -2.089 |  |  |  |  |  |  |
| CC1OC(OC2C(O)COC(O[C@@H]3[C@@H](O)[C@@H](O)[C@H](OC4C(OC(=O)[C@]56CCC(C)(C)CC5C5=CCC7[C@@]8(C)C[C@H](O)[C@H](OC9OC(CO)C(O)C(O)C9O)[C@@](C)(CO)C8[C@H](O)C[C@@]7(C)[C@]5(C)CC6)OCC(O)C4O)O[C@H]3C)C2O)C(O)C(O)C1O (stereo partly shown) [NCGC00385323-01] | -3 |  | -39.964 |  |  |  |  |  |  |
| CC(=O)O[C@H]1C[C@@H]2[C@]3(CC[C@]4(C)[C@@H](C5(C)CCC(C(C)(C)O)O5)[C@@H](O)C[C@@]24C)C[C@@]32CC[C@H](O[C@@H]3OC[C@@H](O)[C@H](O)[C@H]3O)C(C)(C)[C@H]12 (stereo partly shown) [NCGC00385494-01] | 4 | 27.089 | -22.612 |  |  |  |  |  |  |
| CCC(C)C(O)C(=O)OC1CC2C(C)(C)C(OC(C)=O)CC(OC(C)=O)C2(C)C2CC(OC(C)=O)C3(C)C(=CCC3c3ccoc3)C12C (stereo not shown) [NCGC00385571-01] | -3 | 0 | -47.611 |  |  |  |  |  |  |
| CC1=CC(=O)C(=C(C)C)CC2C(C)(O)CCC12O (stereo not shown) [NCGC00385849-01] | -1.2 | -35.641 | -12.132 |  |  |  |  |  |  |
